{"source": "patent US9610249B2", "about": "“Dosage and administration for preventing cardiotoxicity in treatment with ERbB2-targeted immunoliposomes comprising anthracycline chemotherapeutic agents” (MERRIMACK PHARMACEUTICALS, INC., priority 2010, dated 2017)", "key": {"phospho-AKT (pAKT)": {"test_system": "phospho-AKT (pAKT)", "test": "Signaling in iPS-derived cardiomyocytes", "assay_type": "cell-based, human", "conditions": "24 hours pretreatment", "experimental": "(§1) Cells are stained and imaged using high content microscopy as described above for (A) pAKT and (B) pERK following a10 minute stimulation with 10 nM and 5 nM of heregulin, respectively. The following primary antibodies are used at a 1:400 dilution in blocking buffer: pERK antibody—Cell Signaling Technology (CST—Danvers Mass.)—Catalog 9106L (Phospho-p44/42 MAPK (Erk1/2) (Thr202/Tyr204) (E10) Mouse mAb #9106); pAKT antibody—CST—Catalog 4060L (Phospho-Akt (Ser473) (D9E) XP™ Rabbit mAb #4060). Secondary antibodies are Anti-mouse IgG (H+L), F(ab′)2 Fragment (Alexa Fluor® 647 Conjugate)—CST—Catalog 4410; Anti-rabbit IgG (H+L), F(ab′)2 Fragment (Alexa Fluor® 647 Conjugate)—CST—Catalog 4414. Whole cell stain and DNA stain (Hoechst 33342) are used as described above. Images are analyzed and individual cells are segmented on the basis of Hoechst 33342 nuclear staining. Single cell signal intensity for each stain is quantified and represented as the mean relative intensity of individual cells.\n(§2) After stimulation with 10 nM (FIG. 6A) and 5 nM (FIG. 6B) of heregulin (HRG) for 10 min, the levels of phospho-AKT (pAKT, FIG. 6A) and phospho-ERK (pERK, FIG. 6B) were measured by high content microscopy as described above."}, "phospho-ERK (pERK)": {"test_system": "phospho-ERK (pERK)", "test": "Signaling in iPS-derived cardiomyocytes", "assay_type": "cell-based, human", "conditions": "24 hours pretreatment", "experimental": "as §1, §2"}, "BT474-M3 cells": {"test_system": "BT474-M3 cells", "test": "Binding and internalization into HER2 over-expressing tumor cells (total and nuclear doxorubicin)", "assay_type": "cell-based, human", "conditions": "BT474-M3 (1.7×10^6 HER2/cell), 15 μg/ml, up to 3 h"}, "ESCd cardiomyocytes": {"test_system": "ESCd cardiomyocytes", "test": "Uptake of liposomes in cardiomyocytes (HPLC)", "assay_type": "cell-based, human", "conditions": "ESCd cardiomyocytes (approximately 70,000 HER2 receptors per cell), 15.0 μg/ml dox equiv.", "experimental": "(§3) iPSd cardiomyocytes are plated per the manufacturer's instructions (Cell Dynamics International Cat #CMC-100-110-001) in a 24-well tissue culture plate at 250,000 cells/well. Two days later, the 0.5 ml of media in the wells is removed and replaced with 0.5 ml of 15.0 μg/ml (dox equiv.) of MM-302, PLD or free doxorubicin. The plates are swirled in a “figure 8 fashion” 20 times to maximize exposure of the cells to the liposomes. Cells are incubated with MM-302, PLD or free doxorubicin for the indicated time period after which the media are removed and the cells are washed once with 0.5 ml of PBS. The PBS is removed and 0.5 ml of 0.05% trypsin is added to each well. The cells are monitored, and once detachment begins, 0.5 ml of medium containing FBS is added to each well to inactivate the trypsin. The cells are collected and placed in microcentrifuge tubes. The cells are spun at 1,500 rpm for 5 minutes at 4° C. […] Samples are run on the HPLC machine and concentration per sample is determined by relating values to a doxorubicin standard curve.\n(§4) To determine if the level of HER2 expression on cardiomyocytes is sufficient to induce uptake of MM-302, total cellular doxorubicin was quantified by HPLC following treatment of ESCd (FIG. 4A) and iPSd (FIG. 4B) cardiomyocytes."}, "iPSd cardiomyocytes [1]": {"test_system": "iPSd cardiomyocytes", "test": "Uptake of liposomes in cardiomyocytes (HPLC)", "assay_type": "cell-based, human", "conditions": "iPSd cardiomyocytes (approximately 200,000 HER2 receptors per cell), 15.0 μg/ml dox equiv.", "experimental": "as §3, §4"}, "iPSd cardiomyocytes [2]": {"test_system": "iPSd cardiomyocytes", "assay_type": "cell-based, human", "description": "Exposure to low levels of doxorubicin can be cytotoxic."}, "gamma-H2AX": {"test_system": "gamma-H2AX", "assay_type": "cell-based, human", "experimental": "(§5) Cardiomyocytes are treated as described above. Cells are fixed using 3.7% formaldehyde, washed twice with PBS containing 0.1% Tween-20 (PBS-T), and permeabilized with methanol. Cells are blocked using a 1:1 mixture of LI-COR® Odyssey® Blocking Buffer (Lincoln, Nebr.) and PBS-T for 1 h at room temperature (RT). Cells are stained with a 1:400 dilution of the indicated primary antibody from Cell Signaling Technology (Beverly, Mass.) and incubated shaking at 4° C. overnight. Cells are washed and incubated with a 1:2,000 dilution of the fluorescently labeled secondary antibody for 1 h at RT. Cells are stained with a 1:10,000 dilution of Hoechst 33342 and 1:1,000 dilution of Whole Cell Stain from Pierce Protein Research Products (Rockford, Ill.) for 30 min at RT to allow visualization of DNA and the whole cell, respectively. Plates are scanned using the Applied Precision Instruments ArrayWorx® High Content Scanner (Issaquah, Wash.) with a 10× objective for Hoechst 33342/Whole Cell Stain (460 nm), doxorubicin (595 nm), and APC/DiI5 (657 nm). Images are analyzed using the software ImageRail (as described in Millard et al., Nat Methods. 2011; 8:487-92). An intensity threshold is established for nuclear and whole cell signals. This threshold is then applied to all images and used to segment individual cells. […]"}, "phospho-p53": {"test_system": "phospho-p53", "test": "High-content analysis of cell stress in cardiomyocytes", "assay_type": "cell-based, human", "conditions": "ESCd cardiomyocytes, 3 h treatment, 24 h fresh media", "experimental": "as §5"}, "phospho-HSP27": {"test_system": "phospho-HSP27", "assay_type": "cell-based", "experimental": "as §5"}, "cleaved PARP (cPARP)": {"test_system": "cleaved PARP (cPARP)", "assay_type": "cell-based", "experimental": "as §5"}, "[3]": {"test": "Biodistribution of doxorubicin in heart tissue of NCI-N87 tumor bearing mice (HPLC)", "conditions": "3 mg/kg dox equiv. i.v.", "experimental": "5-7-week-old female nude mice are purchased from Charles River Laboratories or Taconic Farms, Inc (NCr nude mice). Unless otherwise indicated, mice are inoculated with BT474-M3 breast cancer cells or NCI-N87 gastric cancer cells (NCI-DTP, 10×10^6 cells in 100 μl RPMI) into the right dorsal flank of the mice (subcutaneous injection, s.c.). When the tumors reach an average volume of ˜200 mm^3, studies are performed as described below.\n(§6) Mice are randomized into 4 groups that received a single intravenous (i.v.) dose of either PBS, doxorubicin, MM-302-DiI5 or PLD-DiI5 (all at 3 mg/kg), respectively. Mice (n=4/time point/group) are sacrificed at 0.5, 4, 24 and 96 h (doxorubicin) or 168 h (MM-302-DiI5 and PLD-DiI5) after the single dose. Five minutes before sacrificing, mice are injected i.v. with 100 μl of FITC-lectin, to label the vasculature.\nHeart tissues are weighed and disaggregated with 1 mL H2O using a TissueLyser™ (Qiagen) for 3 min. 100 μl of the homogenate is then transferred into a new tube and 900 μl of 1% acetic acid/methanol is added. For the cultured cells, cells are treated with drug, as described above, trypsinized and lysed using 1.0% acetic acid in methanol. Lysates are vortexed for 10 sec. and placed at −80° C. for 1 h. Samples are spun at room temperature (RT) for 10 min at 10,000 RPM. Supernatants and doxorubicin standards are analyzed by HPLC (Dionex) using a C18 reverse phase column (Synergi™ POLAR-RP® 80 Å, 250×4.60 mm 4 μm column). Doxorubicin is eluted running a gradient from 30% acetonitrile; 70% 0.1% trifluoroacetic acid (TFA)/H2O to 55% acetonitrile; 45% 0.1% TFA/H2O during a 7 min span at a flow rate of 1.0 ml/min. The doxorubicin peak is detected at 6.5 min using an in-line fluorescence detector excited at 485 nm, and emitting at 590 nm.\nThe macro-level biodistributions of MM-302 (square), PLD (UT-PLD, triangle) and doxorubicin (free dox, circle) were compared in mouse heart tissue (FIG. 7A), human xenograft tumor tissue (FIG. 7B) and paw tissue (FIG. 7C) in NCI-N87 tumor bearing mice inoculated as described above. Mice (n=4/time point/group) were injected i.v. with MM-302, PLD, or free doxorubicin (all at 3 mg/kg dox equiv.) and hearts were collected at 0.5, 4, 24, and 96 h (for dox) or 168 h (for MM-302 and PLD) post injection and doxorubicin quantified by HPLC (FIG. 7A)."}, "[4]": {"test": "Nuclear doxorubicin in heart sections (confocal microscopy and image analysis)", "conditions": "3 mg/kg dox equiv. i.v.", "experimental": "as §6"}, "[5]": {"test_system": "Troponin I (iPSd cardiomyocytes)", "procedure": "15,000 iPSd (iCELL®) cardiomyocytes (Cellular Dynamics International, Madison Wis.) cells are plated per the manufacturer's protocol. […] The supernatant is collected and analyzed using a human Troponin I ELISA (Catalog #: GWB-83A61F, Genway Biotech, San Diego Calif.) per the manufacturer's protocol. A PrestoBlue® Cell Viability Assay (Catalog #: A-13261, Invitrogen, Grand Island, N.Y.) is performed on the remaining cells in 100 μl per the manufacturer's protocol."}, "[6]": {"conditions": "patients; cited from earlier work"}}}
{"compound": "CS(=O)(=O)CCNCc1ccc(-c2ccc3ncnc(Nc4ccc(OCc5cccc(F)c5)c(Cl)c4)c3c2)o1", "note": "[lapatinib]", "values": [{"measurement": "basal phosphorylation of AKT", "setting": "phospho-AKT (pAKT); no heregulin", "value": "reduction in basal phosphorylation"}, {"measurement": "heregulin (HRG)-induced phosphorylation of AKT", "setting": "phospho-AKT (pAKT); 10 nM heregulin, 10 min", "value": "complete inhibition of HRG-induced phosphorylation"}, {"measurement": "basal phosphorylation of ERK", "setting": "phospho-ERK (pERK); no heregulin", "value": "reduction in basal phosphorylation"}, {"measurement": "heregulin (HRG)-induced phosphorylation of ERK", "setting": "phospho-ERK (pERK); 5 nM heregulin, 10 min", "value": "complete inhibition of HRG-induced phosphorylation"}]}
{"compound": "COc1cccc2c1C(=O)c1c(O)c3c(c(O)c1C2=O)C[C@@](O)(C(=O)CO)C[C@@H]3O[C@H]1C[C@H](N)[C@H](O)[C@H](C)O1", "note": "[doxorubicin, Doxorubicin]", "values": [{"measurement": "total cell binding and nuclear doxorubicin accumulation", "setting": "BT474-M3 cells", "value": "freely enter cells and accumulate in the nucleus"}, {"measurement": "total cellular doxorubicin (uptake)", "setting": "ESCd cardiomyocytes", "value": "doxorubicin accumulation in all cells"}, {"measurement": "total cellular doxorubicin (uptake)", "setting": "iPSd cardiomyocytes [1]", "value": "doxorubicin accumulation in all cells"}, {"measurement": "effect on cardiomyocyte viability", "setting": "iPSd cardiomyocytes [2]", "value": "marked decrease in viability"}, {"measurement": "nuclear gamma-H2AX", "setting": "gamma-H2AX", "value": "dose-dependent increase in nuclear gamma-H2AX"}, {"measurement": "phospho-p53", "setting": "phospho-p53", "value": "dose-dependent increase"}, {"measurement": "phospho-HSP27", "setting": "phospho-HSP27", "value": "dose-dependent increase"}, {"measurement": "nuclear cleaved PARP (cPARP) at 5.0 μg/ml", "setting": "cleaved PARP (cPARP)", "value": "increase in nuclear cleaved PARP"}, {"measurement": "clearance of doxorubicin from the heart tissue", "setting": "[3]", "value": "faster compared to MM-302 and PLD"}, {"measurement": "time of peak doxorubicin exposure in the heart", "setting": "[3]", "value": 0.5, "unit": "h"}, {"measurement": "doxorubicin in the heart at 0.5 h", "setting": "[3]; 0.5 h post injection", "value": "10 % of injected dose (i.d.)/g tissue"}, {"measurement": "doxorubicin in the heart at 24 h", "setting": "[3]; 24 h post injection", "value": "0.77 % of i.d./g tissue"}, {"measurement": "nuclei positive for doxorubicin in heart tissue at 0.5 h", "setting": "[4]; 0.5 h", "value": "about 50%"}, {"measurement": "nuclei positive for doxorubicin in heart tissue at 4 h", "setting": "[4]; 4 h", "value": 23, "unit": "%"}, {"measurement": "nuclei positive for doxorubicin in heart tissue at 24 h", "setting": "[4]; 24 h", "value": "returned to basal levels"}, {"measurement": "Troponin I in supernatant", "setting": "[5]", "value": "marked increase of Troponin I"}, {"measurement": "cumulative doxorubicin exposure that increases the potential for cardiomyopathy and heart failure", "setting": "[6]", "value": "above 550 mg/m^2"}]}
